These results are taken from a melting point compilation (Tetko et al.; mined from patent text by program, amines drawn as free bases though some values may be those of a salt).

`NCCn1c(NC2CCN(Cc3ccccc3)CC2)nc2cccnc21` returned a melting point of 102 °C.

As for `c1cnc(-c2nc(C3CC3)no2)cn1`, the melting point was 61 to 64 °C. In turn, `NC(=O)CCC/C=C\[C@@H]1C[C@@H](NS(=O)(=O)c2ccc(Cl)cc2)CN1S(=O)(=O)c1ccc(Cl)cc1` gave a melting point of 142 to 143 °C. In the case of `CC=CCn1c(C)c(C)c2cnnc(OCc3cccs3)c21` it was 72 to 75 °C; in that of `Cc1c(-c2ccccc2)sc2nc(NCCNC(=O)CCN3CCN(C)CC3)[nH]c(=O)c12`, 235 to 245 °C; in that of `C[C@H]1OC(=O)[C@@H](N)[C@@H]1C(=O)O`, 196 to 200 °C. With `COc1cc2c(Nc3ccc(Sc4nccn4C)c(Cl)c3)c(C#N)cnc2cc1-c1ccc(CN2CCOCC2)c(CN2CCOCC2)c1` the figure was 228 to 230 °C. In the case of `O=C(Nc1ccc(Cl)c(Cl)c1)N(O)Cc1ccccc1` it was 157 °C; in that of `CCCCCCCCCCOc1cc(O)cc(C(=O)OC)c1`, 92 to 94 °C; in that of `CCOC(=O)CNC(=S)NC(=Nc1ccc([N+](=O)[O-])cc1)c1ccccc1`, 189 to 190 °C. `CCn1cc(C(=O)NCc2ccc(Cl)cc2)c(=O)c2cc(CCl)oc21` yielded a melting point of 192 to 193 °C.

As to `CONCc1cc(-n2c(=O)cc(C(F)(F)F)n(C)c2=O)ccc1Cl`, the melting point was 83 to 85 °C. With `COc1ccc(NC2(C(N)=O)CCOCC2)cc1`, the melting point fell in the range of 141 to 143 °C. In the case of `CC(C)(C)OC(=O)C=Cc1ccc(NC(=O)C=C2CC(C(=O)O)Nc3ccccc32)cc1` (racemic) it was 140 °C.

Compound `CC(c1cc(Cl)cc(Cl)c1O)c1cc(F)cc(CO)c1O` (stereo not given) returned a melting point of 148 °C. With `O=C(O)c1cccc2c1Cc1c-2[nH]c2ccc(Cl)cc12` the figure was more than 300 °C; with `COc1ccc(-c2ccc(OC)cc2[N+](=O)[O-])c([N+](=O)[O-])c1`, 134 to 137 °C. `CCCOC(=O)n1cc2c(n1)NC(CCC)=C(C(=O)OCC)C2c1ccccc1Cl` (stereo not given) came in with a melting point of 59 °C. With `CC(C)(C)c1cc2c(c(C(=O)Nc3ccc(S(=O)(=O)C(F)(F)F)cc3Cl)c1O)CCCC2` the figure was 151 °C.

As to `CCCCC(CNc1nc(C)c(OC(=O)OCC)c(C)n1)c1ccccc1` (stereo not given), the melting point lay in the range of 105 to 107 °C.

`COC(=O)c1cn(-c2ncnc3c2ccn3C)c2ncccc12` came in with a melting point of 207 °C.

Regarding `COc1ccc(CCC(=O)CC(=O)CCc2ccc(OC)cc2)cc1`, the melting point was 73.5 to 76.2 °C. For `CCN(c1ccc(C#N)cc1[N+](=O)[O-])S(=O)(=O)c1ccc(Cl)s1`, the melting point fell in the range of 102 to 103 °C.

`CC(C)(C)OC(=O)CON=C(C(=O)O)c1ccco1` showed a melting point of 105 to 106 °C.

On to `CCCn1c(=O)c2[nH]c(/C=C/c3ccc(OC)c4ccccc34)nc2n(CCC)c1=O`, for which the melting point was more than 280 °C. With `O=Cc1cn([C@H]2CCc3c(F)cc(F)cc3C2)c(=S)[nH]1` the figure was more than 285 °C; with `COCc1ccc(C(=O)O[C@H](CC(C)C)C(=O)O)o1`, 73 to 74 °C; with `CC(C)OC(=O)COc1ccc(C(=O)CBr)cc1`, 60 to 61 °C. With `Cc1cn(CCCC(=O)O)c2ccccc12` the figure was 82 to 84 °C; with `Cc1nc2cccc(S(=O)(=O)n3c(CCCC(=O)O)cc4nc(Cl)ccc43)c2s1`, 225 °C.

Compound `CC(C)(C)OC(=O)NC(Cc1c[nH]c2ccccc12)C(=O)C=Cc1cc(C(F)(F)F)cc(C(F)(F)F)c1` (stereo not given) yielded a melting point of 137 to 138 °C. With `Cc1ccc(C)c2c1C(=O)N(CCl)S2(=O)=O` the figure was 107 to 108 °C; with `CCC(CC)N(O)C(=O)Nc1cc(C(F)(F)F)cc(C(F)(F)F)c1`, 115 to 116 °C.

In the case of `CC(C)(C#N)NC(=O)Sc1ccccc1`, the melting point lay within 152 to 155 °C. In the case of `NC(=O)c1cccc(OCCOC2CCNCC2)c1` it was 144 to 146 °C.

Broadly, the melting point is the temperature of the solid-liquid transition.
